Laboratory results as given in US12258328B2, “6-membered heteroaryl-containing aminopyridine compounds as EGFR inhibitors” (YUHAN CORPORATION, priority 2021, dated 2025).
Read-outs that look alike come from different tables or passages of the source.

Columns and labels:
EGFR L858R/T790M/C797S = EGFR L858R/T790M/C797S (Homo sapiens, UniProt P00533, C797S/L858R/T790M); test: Biochemical EGFR kinase assay (Lance Ultra TR-FRET), triple mutant L858R/T790M/C797S
How it was run: (§1)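 Kinase activity is measured by TR-FRET phosphopeptide detection. Compounds span 0.003 μM to 10 μM; the 1 h reaction at room temperature is quenched with EDTA, then labelled antibody (2 nM) is incubated 60 min before reading.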

EGFR del19/C797S = EGFR del19/C797S (Homo sapiens, UniProt P00533, C797S/DEL746-750); test: Biochemical EGFR kinase assay (Lance Ultra TR-FRET), double mutant del19/C797S
How it was run: as §1

EGFR L858R/C797S = EGFR L858R/C797S (Homo sapiens, UniProt P00533, C797S/L858R); test: Biochemical EGFR kinase assay (Lance Ultra TR-FRET), double mutant L858R/C797S
Sequence of EGFR L858R/C797S (P00533 25-1210 C797S/L858R): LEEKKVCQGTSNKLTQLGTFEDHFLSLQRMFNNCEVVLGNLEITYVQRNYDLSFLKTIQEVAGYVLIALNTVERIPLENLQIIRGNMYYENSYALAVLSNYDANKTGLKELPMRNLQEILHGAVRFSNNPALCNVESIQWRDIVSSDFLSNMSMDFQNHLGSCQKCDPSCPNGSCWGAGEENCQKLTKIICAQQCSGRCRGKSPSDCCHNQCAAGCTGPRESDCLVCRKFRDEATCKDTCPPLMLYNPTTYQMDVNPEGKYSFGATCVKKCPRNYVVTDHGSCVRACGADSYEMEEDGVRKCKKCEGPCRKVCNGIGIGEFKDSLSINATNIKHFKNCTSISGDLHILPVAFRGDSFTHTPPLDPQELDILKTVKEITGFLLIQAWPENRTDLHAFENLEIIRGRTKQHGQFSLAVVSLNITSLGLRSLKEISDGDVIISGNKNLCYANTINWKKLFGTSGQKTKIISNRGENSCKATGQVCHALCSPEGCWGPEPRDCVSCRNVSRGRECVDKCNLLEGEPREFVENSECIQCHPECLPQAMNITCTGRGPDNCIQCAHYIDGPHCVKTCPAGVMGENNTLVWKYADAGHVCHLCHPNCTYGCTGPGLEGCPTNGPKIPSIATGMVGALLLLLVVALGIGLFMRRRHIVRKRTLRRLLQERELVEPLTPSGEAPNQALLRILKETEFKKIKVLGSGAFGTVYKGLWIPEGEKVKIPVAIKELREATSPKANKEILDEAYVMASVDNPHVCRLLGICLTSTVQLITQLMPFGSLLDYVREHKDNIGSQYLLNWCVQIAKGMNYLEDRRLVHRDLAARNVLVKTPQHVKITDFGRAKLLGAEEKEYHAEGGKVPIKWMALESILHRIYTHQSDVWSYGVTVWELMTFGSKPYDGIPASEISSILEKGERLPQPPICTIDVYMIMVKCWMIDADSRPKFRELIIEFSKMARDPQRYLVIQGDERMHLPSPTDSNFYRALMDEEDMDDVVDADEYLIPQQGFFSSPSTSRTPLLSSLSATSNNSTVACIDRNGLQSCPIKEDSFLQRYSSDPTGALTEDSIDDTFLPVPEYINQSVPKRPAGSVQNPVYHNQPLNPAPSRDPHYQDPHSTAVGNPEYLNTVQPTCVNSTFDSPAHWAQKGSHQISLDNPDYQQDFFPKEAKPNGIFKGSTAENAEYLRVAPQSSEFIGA
How it was run: as §1

EGFR del19/T790M/C797S = EGFR del19/T790M/C797S (Homo sapiens, UniProt P00533, C797S/DEL746-750/T790M); test: Biochemical EGFR kinase assay (Lance Ultra TR-FRET), triple mutant del19/T790M/C797S
Sequence of EGFR del19/T790M/C797S (P00533 with tags, fused parts or gaps DEL746-750/T790M/C797S): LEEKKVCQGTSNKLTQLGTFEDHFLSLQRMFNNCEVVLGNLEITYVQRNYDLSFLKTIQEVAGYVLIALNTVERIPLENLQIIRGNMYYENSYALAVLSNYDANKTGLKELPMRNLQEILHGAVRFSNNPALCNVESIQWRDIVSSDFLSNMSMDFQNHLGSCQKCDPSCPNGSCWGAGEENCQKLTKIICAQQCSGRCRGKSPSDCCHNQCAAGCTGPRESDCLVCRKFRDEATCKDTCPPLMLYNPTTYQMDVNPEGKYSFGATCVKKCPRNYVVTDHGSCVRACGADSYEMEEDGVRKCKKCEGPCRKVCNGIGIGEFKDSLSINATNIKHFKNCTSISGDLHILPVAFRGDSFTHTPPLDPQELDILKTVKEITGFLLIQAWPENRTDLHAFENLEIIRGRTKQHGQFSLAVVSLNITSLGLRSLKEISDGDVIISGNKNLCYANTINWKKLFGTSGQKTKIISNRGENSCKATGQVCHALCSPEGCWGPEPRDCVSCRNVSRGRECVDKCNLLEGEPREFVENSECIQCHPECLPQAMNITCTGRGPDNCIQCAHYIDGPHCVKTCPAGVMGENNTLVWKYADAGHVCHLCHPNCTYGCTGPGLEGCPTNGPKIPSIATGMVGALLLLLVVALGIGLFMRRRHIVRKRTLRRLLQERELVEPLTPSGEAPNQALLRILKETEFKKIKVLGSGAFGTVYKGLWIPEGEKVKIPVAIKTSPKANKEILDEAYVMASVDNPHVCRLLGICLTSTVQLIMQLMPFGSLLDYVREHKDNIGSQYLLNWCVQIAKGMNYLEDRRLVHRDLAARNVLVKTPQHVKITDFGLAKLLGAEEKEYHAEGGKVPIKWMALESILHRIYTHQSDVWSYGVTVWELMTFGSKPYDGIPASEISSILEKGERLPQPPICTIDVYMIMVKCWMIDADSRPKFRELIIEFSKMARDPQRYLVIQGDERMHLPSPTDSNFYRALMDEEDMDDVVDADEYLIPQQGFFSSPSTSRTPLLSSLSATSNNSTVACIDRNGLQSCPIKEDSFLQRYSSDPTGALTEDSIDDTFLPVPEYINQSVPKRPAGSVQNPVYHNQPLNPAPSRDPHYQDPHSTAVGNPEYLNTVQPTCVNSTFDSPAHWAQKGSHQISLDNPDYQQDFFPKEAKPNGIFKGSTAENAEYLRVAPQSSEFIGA
How it was run: as §1

EGFR wildtype = EGFR wildtype (Homo sapiens, UniProt P00533); test: Biochemical EGFR kinase assay (Lance Ultra TR-FRET), wildtype
Sequence of EGFR wildtype (P00533 25-1210): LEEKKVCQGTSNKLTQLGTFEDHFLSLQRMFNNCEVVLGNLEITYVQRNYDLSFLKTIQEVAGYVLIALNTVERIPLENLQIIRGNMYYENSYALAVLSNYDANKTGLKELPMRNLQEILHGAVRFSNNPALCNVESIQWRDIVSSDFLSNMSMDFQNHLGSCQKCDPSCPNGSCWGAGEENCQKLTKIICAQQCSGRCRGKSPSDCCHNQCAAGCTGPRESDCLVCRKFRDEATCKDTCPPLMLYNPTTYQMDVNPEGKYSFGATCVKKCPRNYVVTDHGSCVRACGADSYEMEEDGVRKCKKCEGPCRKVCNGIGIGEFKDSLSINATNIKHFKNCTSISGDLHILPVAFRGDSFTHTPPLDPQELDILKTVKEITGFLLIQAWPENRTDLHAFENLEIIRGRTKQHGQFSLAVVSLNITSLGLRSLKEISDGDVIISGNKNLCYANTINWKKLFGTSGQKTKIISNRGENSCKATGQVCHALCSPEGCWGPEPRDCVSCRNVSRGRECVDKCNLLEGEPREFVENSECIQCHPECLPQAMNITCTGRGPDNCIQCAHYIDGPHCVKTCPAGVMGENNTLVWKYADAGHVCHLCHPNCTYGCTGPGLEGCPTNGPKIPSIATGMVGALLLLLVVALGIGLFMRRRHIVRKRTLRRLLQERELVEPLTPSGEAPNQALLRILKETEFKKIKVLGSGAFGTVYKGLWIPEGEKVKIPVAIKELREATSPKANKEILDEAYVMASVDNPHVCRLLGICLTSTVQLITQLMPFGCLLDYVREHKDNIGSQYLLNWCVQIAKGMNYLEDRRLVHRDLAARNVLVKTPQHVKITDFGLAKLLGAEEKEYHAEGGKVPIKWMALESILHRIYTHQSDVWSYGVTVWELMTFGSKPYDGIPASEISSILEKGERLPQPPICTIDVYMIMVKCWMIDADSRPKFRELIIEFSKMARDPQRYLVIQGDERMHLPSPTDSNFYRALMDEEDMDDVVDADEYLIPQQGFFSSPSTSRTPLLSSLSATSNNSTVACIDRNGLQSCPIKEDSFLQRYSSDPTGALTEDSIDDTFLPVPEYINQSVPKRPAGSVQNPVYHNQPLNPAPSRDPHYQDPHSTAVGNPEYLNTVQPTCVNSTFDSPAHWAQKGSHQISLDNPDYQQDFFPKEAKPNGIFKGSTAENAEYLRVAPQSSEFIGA
How it was run: as §1

[1] = Km ATP, read-out: IC50 L858R/T790M/C797S (nM) Km ATP
[2] = Km ATP, read-out: IC50 del19/C797S (nM) Km ATP
[3] = Km ATP, read-out: IC50 L858R/C797S (nM) Km ATP
[4] = Km ATP, read-out: IC50 del19/T790M/C797S (nM) Km ATP
[5] = Km ATP, read-out: IC50 WT (nM) Km ATP
[6] = ATP at Km, read-out: IC50 L858R/T790M/C797S, Km ATP
[7] = ATP at Km, read-out: IC50 del19/C797S, Km ATP
[8] = ATP at Km, read-out: IC50 L858R/C797S, Km ATP
[9] = ATP at Km, read-out: IC50 del19/T790M/C797S, Km ATP
[10] = ATP at Km, read-out: IC50 WT, Km ATP
[11] = IC50 L858R/T790M/C797S, 100 μM ATP
[12] = IC50 del19/T790M/C797S, 100 μM ATP

Sequence of EGFR L858R/T790M/C797S (P00533 25-1210 T790M/C797S/L858R): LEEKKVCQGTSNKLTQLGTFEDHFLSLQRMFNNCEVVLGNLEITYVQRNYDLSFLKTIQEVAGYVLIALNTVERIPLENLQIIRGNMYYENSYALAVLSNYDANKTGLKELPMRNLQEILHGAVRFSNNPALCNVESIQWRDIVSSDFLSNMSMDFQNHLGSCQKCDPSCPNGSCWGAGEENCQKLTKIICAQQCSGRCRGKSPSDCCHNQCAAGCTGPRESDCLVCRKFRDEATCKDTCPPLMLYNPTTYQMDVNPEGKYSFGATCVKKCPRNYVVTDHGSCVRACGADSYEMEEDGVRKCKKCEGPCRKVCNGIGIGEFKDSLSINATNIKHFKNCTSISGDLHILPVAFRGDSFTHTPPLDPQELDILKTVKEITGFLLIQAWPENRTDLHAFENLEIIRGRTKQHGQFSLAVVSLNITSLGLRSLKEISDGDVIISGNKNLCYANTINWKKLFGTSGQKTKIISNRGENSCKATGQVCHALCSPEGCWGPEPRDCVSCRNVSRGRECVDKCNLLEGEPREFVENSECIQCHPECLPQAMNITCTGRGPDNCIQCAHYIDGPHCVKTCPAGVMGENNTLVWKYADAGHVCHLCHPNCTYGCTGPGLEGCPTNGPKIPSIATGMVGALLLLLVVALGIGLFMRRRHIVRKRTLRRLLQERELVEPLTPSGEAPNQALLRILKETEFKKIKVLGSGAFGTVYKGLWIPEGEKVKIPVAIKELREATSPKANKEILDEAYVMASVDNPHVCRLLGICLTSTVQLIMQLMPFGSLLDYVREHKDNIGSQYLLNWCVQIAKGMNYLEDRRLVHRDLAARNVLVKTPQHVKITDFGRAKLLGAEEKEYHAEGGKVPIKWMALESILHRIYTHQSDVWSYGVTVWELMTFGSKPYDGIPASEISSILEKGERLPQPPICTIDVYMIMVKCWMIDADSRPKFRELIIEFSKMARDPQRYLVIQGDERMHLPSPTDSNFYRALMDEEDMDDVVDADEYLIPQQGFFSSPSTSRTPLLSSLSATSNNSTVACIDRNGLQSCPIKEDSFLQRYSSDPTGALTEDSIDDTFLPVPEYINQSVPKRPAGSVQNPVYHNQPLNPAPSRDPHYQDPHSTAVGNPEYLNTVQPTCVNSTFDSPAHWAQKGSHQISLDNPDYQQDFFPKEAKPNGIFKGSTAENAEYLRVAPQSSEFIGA

IC50 (EGFR L858R/T790M/C797S; [1]) [nM]	IC50 (EGFR del19/C797S; [2]) [nM]	IC50 (EGFR L858R/C797S; [3]) [nM]	IC50 (EGFR del19/T790M/C797S; [4]) [nM]	IC50 (EGFR wildtype; [5]) [nM]	IC50 (EGFR L858R/T790M/C797S; [6]) [nM]	IC50 (EGFR del19/C797S; [7]) [nM]	IC50 (EGFR L858R/C797S; [8]) [nM]	IC50 (EGFR del19/T790M/C797S; [9]) [nM]	IC50 (EGFR wildtype; [10]) [nM]	IC50 (EGFR L858R/T790M/C797S; [11]) [nM]	IC50 (EGFR del19/C797S; IC50 del19/C797S, 100 μM ATP) [nM]	IC50 (EGFR del19/T790M/C797S; [12]) [nM]	IC50 (EGFR wildtype; IC50 WT, 100 μM ATP) [nM]	IC50 (EGFR L858R/C797S; IC50 L858R/C797S, 100 μM ATP) [nM]	Structure (SMILES)
0.03	2	0.8	0.01	17.1											CN1CCC(Oc2ccc(-c3cnc(Nc4ccnc(-c5cnc6c(c5)CCCO6)n4)cc3N[C@H]3CC[C@@](C)(O)CC3)nc2)CC1 [Example 142, (1s,4s)-4-((6′-((2-(3,4-Dihydro-2H-pyrano[2,3-b]pyridin-6-yl)pyrimidin-4-yl)amino)-5-((1-methylpiperidin-4-yl)oxy)-[2,3′-bipyridin]-4′-yl)amino)-1-methylcyclohexan-1-ol]
0.2	1	1.1	0.1	7.9											CN1CCC(Oc2ccc(-c3cnc(Nc4ccnc(-c5cnn(S(=O)(=O)C6CC6)c5)n4)cc3NC3CCC(F)(F)C3)nc2)CC1 (stereo not shown) [Example 143, N^6′-(2-(1-(Cyclopropylsulfonyl)-1H-pyrazol-4-yl)pyrimidin-4-yl)-N^4′-(3,3-difluorocyclopentyl)-5-((1-methylpiperidin-4-yl)oxy)-[2,3′-bipyridine]-4′,6′-diamine]
0.1	2.2	1.2	0.3	26.3											CN1CCC(Oc2cnc(-c3cnc(Nc4ccnc(-c5cnn(S(=O)(=O)C6CC6)c5)n4)cc3N[C@H]3CC[C@@H](F)CC3)cn2)CC1 [Example 144, N^2-(2-(1-(Cyclopropylsulfonyl)-1H-pyrazol-4-yl)pyrimidin-4-yl)-N^4-((1s,4s)-4-fluorocyclohexyl)-5-(5-((1-methylpiperidin-4-yl)oxy)pyrazin-2-yl)pyridine-2,4-diamine]
0.02	0.3	0.1	0.1	0.8											CN1CCC(Oc2cnc(-c3cnc(Nc4ccnc(-c5cnn(S(=O)(=O)C6CC6)c5)n4)cc3N[C@H]3CC[C@@H](CO)CC3)cn2)CC1 [Example 146, ((1s,4s)-4-((2-((2-(1-(Cyclopropylsulfonyl)-1H-pyrazol-4-yl)pyrimidin-4-yl)amino)-5-(5-((1-methylpiperidin-4-yl)oxy)pyrazin-2-yl)pyridin-4-yl)amino)cyclohexyl)methanol]
0.1	0.4	0.1	0.3	2.3											CN1CCC(Oc2cnc(-c3cnc(Nc4ccnc(-c5cnn(S(=O)(=O)C6CC6)c5)n4)cc3N[C@H]3CC[C@@H](C(C)(C)O)CC3)cn2)CC1 [Example 147, 2-((1s,4s)-4-((2-((2-(1-(Cyclopropylsulfonyl)-1H-pyrazol-4-yl)pyrimidin-4-yl)amino)-5-(5-((1-methylpiperidin-4-yl)oxy)pyrazin-2-yl)pyridin-4-yl)amino)cyclohexyl)propan-2-ol]
0.3	2	1	0.3	15.1											C[C@]1(O)CC[C@@H](Nc2cc(Nc3ccnc(-c4cnn(S(=O)(=O)C5CC5)c4)n3)ncc2-c2cnc(OC3CCOCC3)cn2)CC1 [Example 148, (1s,4s)-4-((2-((2-(1-(Cyclopropylsulfonyl)-1H-pyrazol-4-yl)pyrimidin-4-yl)amino)-5-(5-((tetrahydro-2H-pyran-4-yl)oxy)pyrazin-2-yl)pyridin-4-yl)amino)-1-methylcyclohexan-1-ol]
0.3	1	0.4	0.4	11.2											CC1(O)CCC(Nc2cc(Nc3ccnc(-c4cnn(S(=O)(=O)C5CC5)c4)n3)ncc2-c2cnc(OC3CCOC3)cn2)CC1 (stereo not shown) [Example 149, (1s,4s)-4-((2-((2-(1-(Cyclopropylsulfonyl)-1H-pyrazol-4-yl)pyrimidin-4-yl)amino)-5-(5-((tetrahydrofuran-3-yl)oxy)pyrazin-2-yl)pyridin-4-yl)amino)-1-methylcyclohexan-1-ol]
0.1	0.5	0.4	0.2	6.2											C[C@]1(O)CC[C@@H](Nc2cc(Nc3ccnc(-c4cnn(S(=O)(=O)C5CC5)c4)n3)ncc2-c2cnc(OC3COC3)cn2)CC1 [Example 150, (1s,4s)-4-((2-((2-(1-(Cyclopropylsulfonyl)-1H-pyrazol-4-yl)pyrimidin-4-yl)amino)-5-(5-(oxetan-3-yloxy)pyrazin-2-yl)pyridin-4-yl)amino)-1-methylcyclohexan-1-ol]
					0.1	34	17.2	0.8	1910						O=S(=O)(C1CC1)n1cc(-c2nccc(Nc3cc(N[C@H]4CC[C@@H](F)CC4)c(-c4cnc(OC5CCOCC5)cn4)cn3)n2)cn1 [Example 151, N^2-(2-(1-(Cyclopropylsulfonyl)-1H-pyrazol-4-yl)pyrimidin-4-yl)-N^4-((1s,4s)-4-fluorocyclohexyl)-5-(5-((tetrahydro-2H-pyran-4-yl)oxy)pyrazin-2-yl)pyridine-2,4-diamine]
					0.1	214	13.1	0.5	> 10000						O=S(=O)(C1CC1)n1cc(-c2nccc(Nc3cc(NC4CCC(F)CC4)c(-c4cnc(OC5CCOC5)cn4)cn3)n2)cn1 (stereo not shown) [Example 152, N^2-(2-(1-(Cyclopropylsulfonyl)-1H-pyrazol-4-yl)pyrimidin-4-yl)-N^4-((1s,4s)-4-fluorocyclohexyl)-5-(5-((tetrahydrofuran-3-yl)oxy)pyrazin-2-yl)pyridine-2,4-diamine]
					0.1	0.2	0.2	0.4	3.2						C[C@]1(O)CC[C@@H](Nc2cc(Nc3ccnc(-c4cnn(S(=O)(=O)C5CC5)c4)n3)ncc2-c2cnc(OC3CCN(CCF)CC3)cn2)CC1 [Example 153, (1s,4s)-4-((2-((2-(1-(Cyclopropylsulfonyl)-1H-pyrazol-4-yl)pyrimidin-4-yl)amino)-5-(5-((1-(2-fluoroethyl)piperidin-4-yl)oxy)pyrazin-2-yl)pyridin-4-yl)amino)-1-methylcyclohexan-1-ol]
					0.1	0.3	0.2	0.2	2.7						CN1CCC(F)(COc2cnc(-c3cnc(Nc4ccnc(-c5cnn(S(=O)(=O)C6CC6)c5)n4)cc3N[C@H]3CC[C@@](C)(O)CC3)cn2)CC1 [Example 154, (1s,4s)-4-((2-((2-(1-(Cyclopropylsulfonyl)-1H-pyrazol-4-yl)pyrimidin-4-yl)amino)-5-(5-((4-fluoro-1-methylpiperidin-4-yl)methoxy)pyrazin-2-yl)pyridin-4-yl)amino)-1-methylcyclohexan-1-ol]
					0.1	0.3	0.4	0.1		0.2	0.3	0.2	> 10000		CS(=O)(=O)c1ccc(-c2cnc(Nc3ccnc(-c4cnn(S(=O)(=O)C5CC5)c4)n3)cc2N[C@H]2CC[C@@](C)(O)CC2)nc1 [Example 156, (1s,4s)-4-((6′-((2-(1-(Cyclopropylsulfonyl)-1H-pyrazol-4-yl)pyrimidin-4-yl)amino)-5-(methylsulfonyl)-[2,3′-bipyridin]-4′-yl)amino)-1-methylcyclohexan-1-ol]
					0.1	0.8	0.8	0.1	6.9	0.1	0.6	0.1	2930	11.2	CS(=O)(=O)c1ccc(-c2cnc(Nc3ccnc(-c4cnn(S(=O)(=O)C5CC5)c4)n3)cc2N[C@H]2CC[C@@H](NCCF)CC2)nc1 [Example 157, N^6′-(2-(1-(Cyclopropylsulfonyl)-1H-pyrazol-4-yl)pyrimidin-4-yl)-N^4′-((1s,4s)-4-((2-fluoroethyl)amino)cyclohexyl)-5-(methylsulfonyl)-[2,3′-bipyridine]-4′,6′-diamine]
										0.4	0.4	0.3	541	2.4	CS(=O)(=O)c1ccc(-c2cnc(Nc3ccnc(-c4cnn(S(=O)(=O)C5CC5)c4)n3)cc2N[C@H]2CC[C@@H](CO)CC2)nc1 [Example 158, ((1s,4s)-4-((6′-((2-(1-(Cyclopropylsulfonyl)-1H-pyrazol-4-yl)pyrimidin-4-yl)amino)-5-(methylsulfonyl)-[2,3′-bipyridin]-4′-yl)amino)cyclohexyl)methanol]
										0.1	0.2	0.1	323	1.2	CN(C)C[C@H]1CC[C@@H](Nc2cc(Nc3ccnc(-c4cnn(S(=O)(=O)C5CC5)c4)n3)ncc2-c2ccc(S(C)(=O)=O)cn2)CC1 [Example 159, N^6′-(2-(1-(Cyclopropylsulfonyl)-1H-pyrazol-4-yl)pyrimidin-4-yl)-N^4′-((1s,4s)-4-((dimethylamino)methyl)cyclohexyl)-5-(methylsulfonyl)-[2,3′-bipyridine]-4′,6′-diamine]
